Test results taken from US6855490B2, “Method for attaching biological molecules to a glass surface” (Medical Discovery Partners LLC, priority 1999, dated 2005).
Primed or numbered codes have the meaning given here. FITC′ = fluorescein group attached to the epsilon side chain of lysine

Tests used:
1D5 monoclonal antibody [1] = assay: Fluorescence polarization assay of synthetic ER peptides; set-up: species or system mouse; details: binding to 1D5 monoclonal antibody, FITC-labelled peptide
Method: Large quantities of each of the selected phage are grown and nucleic acid extracted for sequence analysis. Based on the nucleotide sequence coding for the inserted ten-mer peptide, corresponding peptides are synthesized. Numerous commercial vendors provide peptide synthesis capabilities. The binding affinity of each of the selected peptide sequences for their antibodies is determined using Scatchard analysis. The percentage of antibodies binding to the peptide can be ascertained using fluorescence polarization analysis, provided that the peptide is fluorescently labeled. The specificity of binding for each peptide antigen mimic is tested using irrelevant, isotype-matched antibodies.
(§1) Three synthetic peptides (designated as ER peptide 3, ER peptide 4, and ER peptide 6), that are representative of above consensus phage sequence, were synthesized (by SynPep Labs, Dublin, Calif. and Bachem Labs, King of Prussia, Pa.) and tested for specificity/affinity to 1D5 monoclonal antibody.

1D5 monoclonal antibody [2] = assay: Peptide ELISA of synthetic ER peptides; assay type: binding, mouse; details: compared among ER peptides 3, 4 and 6
Source text: as §1

Substance: Ac-DFQCPYVECVVNAPGGK(FITC)GK-CONH2 (Ac-DFQCPYVECVVNAPGGK(FITC′)GK-NH2; cysteine pairing not given here) [ER peptide 3]
- Kd (1D5 monoclonal antibody [1]): ~1 nM
- Peptide ELISA signal (1D5 monoclonal antibody [2]): highest signal
